Laboratory results reported in US9221809B2 (MERCK SHARP & DOHME CORP., priority 2011, dated 2015).
Structures can show the parent of a compound that is named as a salt.

The molecules below were run against IRAK4 (Homo sapiens (Human), UniProt Q9NWZ3) (assay: IRAK4 kinase activity, IMAP fluorescence polarization assay). Settings: 100 μM ATP, 0.5 nM GST tagged IRAK4; read-out: IRAK4 IC50.
Assay type: biochemical
How it was run: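 Fluorescence polarization (IMAP nanoparticle binding of phosphopeptide) reports activity after a 30 min, 25 °C reaction. Conditions: 100 μM ATP, 0.5 nM GST-IRAK4, 100 nM fluorescent peptide, 10 mM Tris pH 7.2, 1 mM MgCl2, 1 mM DTT, 0.01% Tween 20.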

Chain of IRAK4 (Q9NWZ3 whole entry): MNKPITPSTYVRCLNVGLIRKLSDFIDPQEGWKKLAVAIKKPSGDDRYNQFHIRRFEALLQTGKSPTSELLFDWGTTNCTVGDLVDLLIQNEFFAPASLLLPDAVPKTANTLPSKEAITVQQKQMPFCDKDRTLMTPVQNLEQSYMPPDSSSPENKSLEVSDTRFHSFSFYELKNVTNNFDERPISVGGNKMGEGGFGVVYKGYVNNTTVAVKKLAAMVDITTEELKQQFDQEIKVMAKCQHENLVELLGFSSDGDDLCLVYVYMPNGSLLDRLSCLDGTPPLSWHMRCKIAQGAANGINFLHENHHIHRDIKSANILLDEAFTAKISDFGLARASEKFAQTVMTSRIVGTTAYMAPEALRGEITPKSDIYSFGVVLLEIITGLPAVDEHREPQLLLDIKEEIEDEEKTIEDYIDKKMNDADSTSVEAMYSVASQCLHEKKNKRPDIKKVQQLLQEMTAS

| SMILES | IC50 [nM] |
| --- | --- |
| O=c1[nH]c(NC2CCC2)nc(NC[C@H](O)CO)c1-c1nc2ccccc2s1 [Example 49, (S)-5-(Benzo[d]thiazol-2-yl)-2-(cyclobutylamino)-6-(2,3-dihydroxypropylamino)pyrimidin-4(3H)-one.HCl] | 5330 |
| O=c1[nH]c(NC2CNC2)nc(N[C@@H]2C[C@H](CO)[C@@H](O)[C@H]2O)c1-c1nc2ccccc2s1 [Example 36, 2-(Azetidin-3-ylamino)-5-(benzo[d]thiazol-2-yl)-6-(((1R,2S,3R,4R)-2,3-dihydroxy-4-(hydroxymethyl)cyclopentyl)amino)pyrimidin-4(3H)-one.HCl] | 656 |
| O=c1[nH]c(N2CCOCC2)nc(NCC(O)CO)c1-c1nc2ccccc2s1 (stereo not shown) [Example 246, 5-(1,3-benzothiazol-2-yl)-6-[(2,3-dihydroxypropyl)amino]-2-(morpholin-4-yl)-3,4-dihydropyrimidin-4-one] | 8100 |
| Cc1cnc(-c2c(N[C@@H]3CCCNC3)nc(N3CCOCC3)[nH]c2=O)s1 [Example 102, (R)-5-(5-methylthiazol-2-yl)-2-morpholino-6-(piperidin-3-ylamino)pyrimidin-4(3H)-one.HCl] | 1270 |
| NCCNc1cccc2sc(-c3c(N[C@@H]4CCCNC4)nc(N4CCOCC4)[nH]c3=O)nc12 [Example 356, 5-[4-[(2-aminoethyl)amino]-1,3-benzothiazol-2-yl]-2-(morpholin-4-yl)-6-[[(3R)-piperidin-3-yl]amino]-3,4-dihydropyrimidin-4-one] | 16 |
| O=c1[nH]c(N[C@H]2CCCNC2)nc(N[C@@H]2C[C@H](CO)[C@@H](O)[C@H]2O)c1-c1nc2ccccc2s1 [Example 39, 5-(Benzo[d]thiazol-2-yl)-6-(((1R,2S,3R,4R)-2,3-dihydroxy-4-(hydroxymethyl)cyclopentyl)amino)-2-((S)-piperidin-3-ylamino)pyrimidin-4(3H)-one.HCl] | 4260 |
| CS(=O)(=O)N1CCC(Nc2nc(N[C@@H]3C[C@H](CO)[C@@H](O)[C@H]3O)c(-c3nc4ccccc4s3)c(=O)[nH]2)CC1 [Example 10, 5-(Benzo[d]thiazol-2-yl)-6-((1R,2S,3R,4R)-2,3-dihydroxy-4-(hydroxymethyl)cyclopentylamino)-2-(1-(methylsulfonyl)piperidin-4-ylamino)pyrimidin-4(3H)-one.HCl] | 545 |
| O=c1[nH]c(NC2CCC2)nc(N[C@@H]2C[C@H](CO)[C@@H](O)[C@H]2O)c1-c1cscn1 [Example 23, 2-(Cyclobutylamino)-6-((1R,2S,3R,4R)-2,3-dihydroxy-4-(hydroxymethyl)cyclopentylamino)-5-(thiazol-4-yl)pyrimidin-4(3H)-one.HCl] | 1790 |

More lines, now with the values ahead:

| IC50 [nM] | SMILES |
| --- | --- |
| 12 | O=c1[nH]c(N2CCOCC2)nc(N[C@@H]2CCCNC2)c1-c1csc(-n2cccc2)n1 [Example 214, (R)-5-(2-(1H-pyrrol-1-yl)thiazol-4-yl)-2-morpholino-6-(piperidin-3-ylamino)pyrimidin-4(3H)-one] |
| 26 | O=c1[nH]c(N2CCOCC2)nc(N[C@@H]2CCCNC2)c1-c1ccc2ccccc2n1 [Example 93, (R)-2-Morpholino-6-(piperidin-3-ylamino)-5-(quinolin-2-yl)pyrimidin-4(3H)-one.HCl] |
| 38 | C[C@@H]1CC[C@@H](Nc2nc(N3CCOCC3)[nH]c(=O)c2-c2ccc3ccccc3n2)CN1 (racemic) [Example 121, 6-(methylpiperidin-3-yl)amino-2-morpholino-5-(quinolin-2-yl)pyrimidin-4(3H)-one.HCl] |
| 27 | O=c1[nH]c(N2CCOCC2)nc(NC2CCCCNC2)c1-c1nc2ccccc2s1 (stereo not shown) [Example 92, 6-(Azepan-3-ylamino)-5-(benzo[d]thiazol-2-yl)-2-morpholinopyrimidin-4(3H)-one.HCl] |

Same assay, conditions: 100 μM ATP; read-out: IC50

| SMILES | IC50 [nM] |
| --- | --- |
| NC1CCCCC1Nc1nc(N2CCOCC2)[nH]c(=O)c1-c1nc2ccccc2s1 (stereo not shown) [Example 263, 6-(2-aminocyclohexylamino)-5-(benzo[d]thiazol-2-yl)-2-morpholino-pyrimidin-4(3H)-one] | 230 |
| N=C(N)CNc1nc(N2CCOCC2)[nH]c(=O)c1-c1nc2ccccc2s1 [Example 250, 2-[[5-(1,3-benzothiazol-2-yl)-2-(morpholin-4-yl)-6-oxo-1,6-dihydropyrimidin-4-yl]amino]ethanimidamide] | 300 |
| O=c1[nH]c(N2CCOCC2)nc(N[C@H]2CNCC(F)(F)C2)c1-c1nc2ccccc2s1 [Example 212, (R)-5-(benzo[d]thiazol-2-yl)-6-((5,5-difluoropiperidin-3-yl)amino)-2-morpholinopyrimidin-4(3H)-one] | 792 |

More lines, now with the values ahead:

| IC50 [nM] | SMILES |
| --- | --- |
| 12 | O=c1[nH]c(N2CCC3(CCN(c4ncccn4)C3)C2)nc(N[C@@H]2CCCNC2)c1-c1nc2ccccc2s1 (stereo partly drawn) [Example 324, 5-(1,3-benzothiazol-2-yl)-6-[[(3R)-piperidin-3-yl]amino]-2-[7-(pyrimidin-2-yl)-2,7-diazaspiro[4.4]nonan-2-yl]-3,4-dihydropyrimidin-4-one trifluoroacetic acid] |
| 23 | O=c1[nH]c(N2CCC3(CCN(S(=O)(=O)c4ccccc4)C3)C2)nc(N[C@@H]2CCCNC2)c1-c1nc2ccccc2s1 (stereo partly shown) [Example 328] |
| 1200 | CN1CCCC(Nc2nc(N3CCOCC3)[nH]c(=O)c2-c2nc3ccccc3s2)C1 (stereo not shown) [Example 252, 5-(1,3-benzothiazol-2-yl)-6-[(1-methylpiperidin-3-yl)amino]-2-(morpholin-4-yl)-3,4-dihydro-pyrimidin-4-one] |
| 150 | C[C@@H]1C[C@@H](Nc2nc(N3CCOCC3)[nH]c(=O)c2-c2nc3ccccc3s2)CN1 [Example 210, 5-(benzo[d]thiazol-2-yl)-6-(((3R,5R)-5-methylpyrrolidin-3-yl)amino)-2-morpholinopyrimidin-4(3H)-one] |
| 150 | O=c1[nH]c(N2CCOCC2)nc(NC2CNC2)c1-c1ccc2ccccc2n1 [Example 275, 6-[(azetidin-3-yl)amino]-2-(morpholin-4-yl)-5-(quinolin-2-yl)-3,4-dihydropyrimidin-4-one] |
| 330 | O=c1[nH]c(N2CCC3CCCCC3C2)nc(N[C@@H]2CCCNC2)c1-c1nc2ccccc2s1 (stereo partly drawn) [Example 313, 5-(1,3-benzothiazol-2-yl)-(decahydroisoquinolin-2-yl)-6-[[(3R)piperidin-3-yl]amino]-3,4-dihydropyrimidin-4-one; trifluoroacetic acid] |
| 300 | CC1CN(c2nc(N[C@@H]3CCCNC3)c(-c3nc4ccccc4s3)c(=O)[nH]2)CC(C)O1 (stereo partly drawn) [Example 294, 5-(benzo[d]thiazol-2-yl)-2-(2,6-dimethylmorpholino)-6-((R)-piperidin-3-ylamino)pyrimidiri-4{3H)-one] |
| 620 | O=c1[nH]c(C2CCN(C3CCCC3)CC2)nc(N[C@@H]2CCCNC2)c1-c1nc2ccccc2s1 [Example 231, 5-(1,3-benzothiazol-2-yl)-2-(1-cyclo-pentylpiperidin-4-yl)-6-[[(3R)-piperidin-3-yl]amino]-3,4-dihydropyrimidin-4-one] |

Same assay, conditions: 100 μM ATP; read-out: IRAK4 IC50

| IC50 [nM] | SMILES |
| --- | --- |
| 9 | CS(=O)(=O)c1ccccc1N1CCN(c2nc(N[C@@H]3CCCNC3)c(-c3nc4ccccc4s3)c(=O)[nH]2)CC1 [Example 156, (R)-5-(benzo[d]thiazol-2-yl)-2-(4-(2-(methylsulfonyl)phenyl)piperazin-1-yl)-6-(piperidin-3-ylamino)pyrimidin-4(3H)-one] |
| 26 | COC1CCN(c2nc(N[C@@H]3CCCNC3)c(-c3ccc4ccccc4n3)c(=O)[nH]2)C1 (stereo partly drawn) [Example 186, 2-(3-methoxypyrrolidin-1-yl)-6-((R)-piperidin-3-ylamino)-5-(quinolin-2-yl)pyrimidin-4(3H)-one] |
| 20 | Cn1cc(N2CCN(c3nc(N[C@@H]4CCCNC4)c(-c4nc5ccccc5s4)c(=O)[nH]3)CC2)cn1 [Example 159, (R)-5-(benzo[d]thiazol-2-yl)-2-(4-(1-methyl-1H-pyrazol-4-yl)piperazin-1-yl)-6-(piperidin-3-ylamino)pyrimidin-4(3H)-one] |
| 31 | CC1(O)CCN(c2nc(N[C@@H]3CCCNC3)c(-c3ccc4ccccc4n3)c(=O)[nH]2)C1 (stereo partly drawn) [Example 181, 2-(3-hydroxy-3-methylpyrrolidin-1-yl)-6-((R)-piperidin-3-ylamino)-5-(quinolin-2-yl)pyrimidin-4(3H)-one] |
| 54 | CC(=O)NC1CCN(c2nc(N[C@@H]3CCCNC3)c(-c3ccc4ccccc4n3)c(=O)[nH]2)C1 (stereo partly drawn) [Example 165, N-(1-(6-oxo-4-((R)-piperidin-3-ylamino)-5-(quinolin-2-yl)-1,6-dihydropyrimidin-2-yl)pyrrolidin-3-yl)acetamide] |

Same assay, conditions: unit inferred; 100 μM ATP; read-out: IRAK4 IC50

| IC50 [nM] | SMILES |
| --- | --- |
| 36.7 | CC(=O)NCC1CCN(c2nc(N[C@@H]3C[C@H](CO)[C@@H](O)[C@H]3O)c(-c3nc4ccccc4s3)c(=O)[nH]2)CC1 [Example 79, N-((1-(5-(benzo[d]thiazol-2-yl)-4-((1R,2S,3R,4R)-2,3-dihydroxy-4-(hydroxymethyl)cyclopentylamino)-6-oxo-1,6-dihydropyrimidin-2-yl)piperidin-4-yl)methyl)acetamide] |
| 8.8 | CN1CCC2(CCN(c3nc(N[C@@H]4C[C@H](CO)[C@@H](O)[C@H]4O)c(-c4nc5ccccc5s4)c(=O)[nH]3)CC2)C1=O [Example 66, 8-(5-(benzo[d]thiazol-2-yl)-4-((1R,2S,3R,4R)-2,3-dihydroxy-4-(hydroxymethyl)cyclopentylamino)-6-oxo-1,6-dihydropyrimidin-2-yl)-2-methyl-2,8-diazaspiro[4.5]decan-1-one] |
| 19 | O=c1[nH]c(N2CCC(c3ccncc3)CC2)nc(N[C@@H]2C[C@H](CO)[C@@H](O)[C@H]2O)c1-c1nc2ccccc2s1 [Example 72, 5-(benzo[d]thiazol-2-yl)-6-((1R,2S,3R,4R)-2,3-dihydroxy-4-(hydroxymethyl)cyclopentylamino)-2-(4-(pyridin-4-yl)piperidin-1-yl)pyrimidin-4(3H)-one] |
